Assay results taken from publication PMC5218480 (PLoS ONE, 2017).

System: MV-4-11 cells
Assay: Gene expression microarray analysis (Affymetrix PrimeView) and GSEA
Assay type: cell-based, human
Parameters: RFU PODN (11730768_x_at) / Fold change /veh PODN (11730768_x_at) / RFU LINC00158 (11744669_a_at) / Fold change /veh LINC00158 (11744669_a_at) / RFU DUSP10 (11751237_a_at) / Fold change /veh DUSP10 (11751237_a_at) / RFU ID3 (11757404_x_at) / Fold change /veh ID3 (11757404_x_at) / RFU PLEKHG5 (11737974_s_at) / Fold change /veh PLEKHG5 (11737974_s_at) / RFU LRRC4B (11730491_at) / Fold change /veh LRRC4B (11730491_at) / RFU GIMAP4 (11747438_a_at) / Fold change /veh GIMAP4 (11747438_a_at) / RFU KRT8 (11758183_x_at) / Fold change /veh KRT8 (11758183_x_at) / RFU CNN1 (11734310_a_at) / Fold change /veh CNN1 (11734310_a_at) / RFU VPS37D (11726825_at) / Fold change /veh VPS37D (11726825_at) / RFU C10orf10 (11716522_x_at) / Fold change /veh C10orf10 (11716522_x_at) / RFU KIR2DL2 /// KIR2DL4 /// KIR2DL5A /// KIR2DL5B /// KIR2DS1 /// KIR2DS2 /// KIR2DS3 /// KIR2DS4 /// KIR3DL3 /// KIR3DL3 /// KIR3DS1 (11738374_at) / Fold change /veh KIR2DL2 /// KIR2DL4 /// KIR2DL5A /// KIR2DL5B /// KIR2DS1 /// KIR2DS2 /// KIR2DS3 /// KIR2DS4 /// KIR3DL3 /// KIR3DL3 /// KIR3DS1 (11738374_at) / RFU C1QL1 (11718748_at) / Fold change /veh C1QL1 (11718748_at) / RFU TMPRSS4 (11747572_a_at) / Fold change /veh TMPRSS4 (11747572_a_at) / RFU HAMP (11756126_x_at) / Fold change /veh HAMP (11756126_x_at) / RFU RNFT2 (11725882_a_at) / Fold change /veh RNFT2 (11725882_a_at) / RFU NR4A2 (11747474_a_at) / Fold change /veh NR4A2 (11747474_a_at) / RFU ABCC12 (11746883_a_at) / Fold change /veh ABCC12 (11746883_a_at) / RFU TMEM136 (11760407_x_at) / Fold change /veh TMEM136 (11760407_x_at) / RFU CLDN22 /// WWC2 (11732394_at) / Fold change /veh CLDN22 /// WWC2 (11732394_at) / RFU HLA-DPB1 (11760878_x_at) / Fold change /veh HLA-DPB1 (11760878_x_at) / RFU SPINT1 (11716480_a_at) / Fold change /veh SPINT1 (11716480_a_at) / RFU GAP43 (11754022_s_at) / Fold change /veh GAP43 (11754022_s_at) / RFU A4GNT (11735810_at) / Fold change /veh A4GNT (11735810_at) / RFU PRB3 (11715151_x_at) / Fold change /veh PRB3 (11715151_x_at) / RFU TUBB4B (11761932_at) / Fold change /veh TUBB4B (11761932_at) / RFU CAPN14 (11732068_a_at) / Fold change /veh CAPN14 (11732068_a_at) / RFU TMCC2 (11721928_a_at) / Fold change /veh TMCC2 (11721928_a_at) / RFU IRGQ (11745062_a_at) / Fold change /veh IRGQ (11745062_a_at) / RFU FAM174B (11720279_a_at) / Fold change /veh FAM174B (11720279_a_at) / RFU TMPRSS4 (11748680_a_at) / Fold change /veh TMPRSS4 (11748680_a_at) / RFU FAM212B (11763350_a_at) / Fold change /veh FAM212B (11763350_a_at) / RFU PLEKHG5 (11743358_a_at) / Fold change /veh PLEKHG5 (11743358_a_at) / RFU ZSCAN30 (11745921_a_at) / Fold change /veh ZSCAN30 (11745921_a_at) / RFU CMKLR1 (11741424_a_at) / Fold change /veh CMKLR1 (11741424_a_at) / RFU LOC101060620 /// MAPK8IP1 (11723275_at) / Fold change /veh LOC101060620 /// MAPK8IP1 (11723275_at) / RFU SPTSSB (11747773_x_at) / Fold change /veh SPTSSB (11747773_x_at) / RFU PRSS12 (11739890_at) / Fold change /veh PRSS12 (11739890_at) / RFU BIN1 (11741810_x_at) / Fold change /veh BIN1 (11741810_x_at) / RFU WNT11 (11732464_a_at) / Fold change /veh WNT11 (11732464_a_at) / RFU C10orf10 (11716521_a_at) / Fold change /veh C10orf10 (11716521_a_at) / RFU C5orf56 (11738089_at) / Fold change /veh C5orf56 (11738089_at) / RFU CYB561 (11721691_x_at) / Fold change /veh CYB561 (11721691_x_at) / RFU ANKRD19P (11752326_a_at) / Fold change /veh ANKRD19P (11752326_a_at) / RFU OR2T12 /// OR2T33 /// OR2T8 (11738714_s_at) / Fold change /veh OR2T12 /// OR2T33 /// OR2T8 (11738714_s_at) / RFU VCAN (11748164_a_at) / Fold change /veh VCAN (11748164_a_at) / RFU JSRP1 (11732532_at) / Fold change /veh JSRP1 (11732532_at) / RFU KRTAP10-11 (11738290_x_at) / Fold change /veh KRTAP10-11 (11738290_x_at) / RFU MYO3A (11730013_a_at) / Fold change /veh MYO3A (11730013_a_at) / RFU EBF3 (11725865_a_at) / Fold change /veh EBF3 (11725865_a_at) / RFU CAMK2N1 (11719241_x_at) / Fold change /veh CAMK2N1 (11719241_x_at) / RFU C5orf56 (11738088_a_at) / Fold change /veh C5orf56 (11738088_a_at) / RFU OLFML3 (11715873_a_at) / Fold change /veh OLFML3 (11715873_a_at) / RFU LOC100653217 /// NTM (11731650_a_at) / Fold change /veh LOC100653217 /// NTM (11731650_a_at) / RFU MAPK11 (11762145_a_at) / Fold change /veh MAPK11 (11762145_a_at) / RFU FIZ1 (11724087_x_at) / Fold change /veh FIZ1 (11724087_x_at) / RFU OASL (11726364_x_at) / Fold change /veh OASL (11726364_x_at) / RFU SOX15 (11748057_x_at) / Fold change /veh SOX15 (11748057_x_at) / RFU CD79A (11719716_a_at) / Fold change /veh CD79A (11719716_a_at) / RFU HIST1H1D (11736915_at) / Fold change /veh HIST1H1D (11736915_at) / RFU CASKIN2 (11723855_a_at) / Fold change /veh CASKIN2 (11723855_a_at) / RFU LOC730098 (11760151_x_at) / Fold change /veh LOC730098 (11760151_x_at) / RFU OR4N2 (11742367_at) / Fold change /veh OR4N2 (11742367_at) / RFU PRRT2 (11749266_a_at) / Fold change /veh PRRT2 (11749266_a_at) / RFU SNX32 (11753110_a_at) / Fold change /veh SNX32 (11753110_a_at) / RFU CDHR5 (11726645_a_at) / Fold change /veh CDHR5 (11726645_a_at) / RFU RCAN1 (11760418_a_at) / Fold change /veh RCAN1 (11760418_a_at) / RFU FAM167A (11723789_a_at) / Fold change /veh FAM167A (11723789_a_at) / RFU FAM26E (11764081_at) / Fold change /veh FAM26E (11764081_at) / RFU ISYNA1 (11749810_s_at) / Fold change /veh ISYNA1 (11749810_s_at) / RFU ACY1 (11761880_at) / Fold change /veh ACY1 (11761880_at) / RFU 11764098_at / Fold change /veh 11764098_at / RFU SAMD14 (11745864_x_at) / Fold change /veh SAMD14 (11745864_x_at) / RFU NPB (11741838_a_at) / Fold change /veh NPB (11741838_a_at) / RFU TMPRSS6 (11731388_a_at) / Fold change /veh TMPRSS6 (11731388_a_at) / RFU KRTAP10-2 (11738614_at) / Fold change /veh KRTAP10-2 (11738614_at) / RFU ARHGAP8 /// PRR5-ARHGAP8 (11727945_x_at) / Fold change /veh ARHGAP8 /// PRR5-ARHGAP8 (11727945_x_at) / RFU KRTAP5-7 /// NADSYN1 (11734609_at) / Fold change /veh KRTAP5-7 /// NADSYN1 (11734609_at) / RFU RASL12 (11751679_a_at) / Fold change /veh RASL12 (11751679_a_at) / RFU CDKN2B (11736163_a_at) / Fold change /veh CDKN2B (11736163_a_at) / RFU PRF1 (11729649_at) / Fold change /veh PRF1 (11729649_at) / RFU, ZNF638 /// ZNF638-IT1 / Fold change vs veh, ZNF638 /// ZNF638-IT1 / RFU, PANK3 / Fold change vs veh, PANK3 / RFU, SH3YL1 / Fold change vs veh, SH3YL1 / RFU, ZEB2 / Fold change vs veh, ZEB2 / RFU, NRIP1 / Fold change vs veh, NRIP1 / RFU, PTTG1IP / Fold change vs veh, PTTG1IP / RFU, CAPN2 / Fold change vs veh, CAPN2 / RFU, MED14 / Fold change vs veh, MED14 / RFU, SNORA58 / Fold change vs veh, SNORA58 / RFU, C1orf63 / Fold change vs veh, C1orf63 / RFU, LRRFIP1 / Fold change vs veh, LRRFIP1 / RFU, NDUFAF7 / Fold change vs veh, NDUFAF7 / RFU, SLC12A2 / Fold change vs veh, SLC12A2 / RFU, IBTK / Fold change vs veh, IBTK / RFU, ESF1 / Fold change vs veh, ESF1 / Fold change vs veh, TMEM50B / RFU, TAOK1 / Fold change vs veh, TAOK1 / RFU, ACBD3 / Fold change vs veh, ACBD3 / RFU, TMA16 / Fold change vs veh, TMA16 / RFU, RWDD3 / Fold change vs veh, RWDD3 / RFU, BCAT1 / Fold change vs veh, BCAT1 / RFU, EDEM3 / Fold change vs veh, EDEM3 / RFU, TMEM33 / Fold change vs veh, TMEM33 / RFU, WDR75 / Fold change vs veh, WDR75 / RFU, AHCTF1 / Fold change vs veh, AHCTF1 / RFU, TFRC / Fold change vs veh, TFRC / RFU, ZDHHC17 / Fold change vs veh, ZDHHC17 / RFU, NOM1 / Fold change vs veh, NOM1 / RFU, ARL8B / Fold change vs veh, ARL8B / RFU, ZBTB11 / Fold change vs veh, ZBTB11 / RFU, TAMM41 / Fold change vs veh, TAMM41 / RFU, KIAA1704 /// LOC100996395 / Fold change vs veh, KIAA1704 /// LOC100996395 / RFU, ING1 / Fold change vs veh, ING1 / RFU, TRMT61B / Fold change vs veh, TRMT61B / RFU, FUBP3 / Fold change vs veh, FUBP3 / RFU, TP53 / Fold change vs veh, TP53 / RFU, TNKS2 / Fold change vs veh, TNKS2 / RFU, ZFP14 / Fold change vs veh, ZFP14 / RFU, ACTR2 / Fold change vs veh, ACTR2 / RFU, PPP3R1 / Fold change vs veh, PPP3R1 / RFU, PIK3R1 / Fold change vs veh, PIK3R1 / RFU, HNRNPA1 / Fold change vs veh, HNRNPA1 / RFU, RNF170 / Fold change vs veh, RNF170 / RFU, ZNF28 / Fold change vs veh, ZNF28 / RFU, RNGTT / Fold change vs veh, RNGTT / RFU, OGT / Fold change vs veh, OGT / RFU, BRD1 / Fold change vs veh, BRD1 / RFU, MARS / Fold change vs veh, MARS / RFU, ZNF655 / Fold change vs veh, ZNF655 / RFU, FAHD1 / Fold change vs veh, FAHD1 / RFU, BDP1 / Fold change vs veh, BDP1 / RFU, LRRCC1 / Fold change vs veh, LRRCC1 / RFU, ARID1A / Fold change vs veh, ARID1A / RFU, ZNF146 / Fold change vs veh, ZNF146 / RFU, ZNF330 / Fold change vs veh, ZNF330 / RFU, GPN3 / Fold change vs veh, GPN3 / RFU, C9orf123 / Fold change vs veh, C9orf123 / RFU, N4BP2L2 / Fold change vs veh, N4BP2L2 / RFU, ARFIP1 / Fold change vs veh, ARFIP1 / RFU, FAM179B / Fold change vs veh, FAM179B / RFU, BCL10 / Fold change vs veh, BCL10 / RFU, UHRF1BP1L / Fold change vs veh, UHRF1BP1L / RFU, BET1 / Fold change vs veh, BET1 / RFU, CNOT2 / Fold change vs veh, CNOT2 / RFU, ZNF268 / Fold change vs veh, ZNF268 / Fold change vs veh, ZNF507 / RFU, DGCR2 / Fold change vs veh, DGCR2 / RFU, WDSUB1 / Fold change vs veh, WDSUB1 / Fold change vs veh, HSP90B1 /// MIR3652 / RFU, ADSS / Fold change vs veh, ADSS / RFU, GK / Fold change vs veh, GK / RFU, ZNF148 / Fold change vs veh, ZNF148 / RFU, TAF9 / Fold change vs veh, TAF9 / RFU, SLC1A5 / Fold change vs veh, SLC1A5 / RFU, SLMO2 / Fold change vs veh, SLMO2 / RFU, ABCC4 / Fold change vs veh, ABCC4 / RFU, LOC101060439 /// RAP1B / Fold change vs veh, LOC101060439 /// RAP1B / RFU, RFX7 / Fold change vs veh, RFX7 / RFU, GTPBP10 / Fold change vs veh, GTPBP10 / RFU, CNEP1R1 / Fold change vs veh, CNEP1R1 / RFU, BIVM-ERCC5 /// ERCC5 / Fold change vs veh, BIVM-ERCC5 /// ERCC5 / RFU, ILF3 / Fold change vs veh, ILF3 / RFU 11762660_at / Fold change /veh 11762660_at / RFU VCAN (11757783_s_at) / Fold change /veh VCAN (11757783_s_at) / RFU DDX43 (11728927_at) / Fold change /veh DDX43 (11728927_at) / RFU KRT8 (11758188_x_at) / Fold change /veh KRT8 (11758188_x_at) / RFU NKD1 (11759106_at) / Fold change /veh NKD1 (11759106_at) / RFU SRD5A1 (11742802_a_at) / Fold change /veh SRD5A1 (11742802_a_at) / RFU TPSAB1 /// TPSB2 (11721975_s_at) / Fold change /veh TPSAB1 /// TPSB2 (11721975_s_at) / RFU GSTM3 (11746129_a_at) / Fold change /veh GSTM3 (11746129_a_at) / RFU IL23R (11737362_x_at) / Fold change /veh IL23R (11737362_x_at) / RFU TMEM51 (11727254_a_at) / Fold change /veh TMEM51 (11727254_a_at) / RFU PIWIL2 (11732686_x_at) / Fold change /veh PIWIL2 (11732686_x_at) / RFU ORM1 (11744905_x_at) / Fold change /veh ORM1 (11744905_x_at) / RFU CCDC152 (11743942_at) / Fold change /veh CCDC152 (11743942_at) / RFU ECM1 (11717891_a_at) / Fold change /veh ECM1 (11717891_a_at) / RFU IL23R (11748794_a_at) / Fold change /veh IL23R (11748794_a_at) / RFU TNFAIP8L3 (11732012_x_at) / Fold change /veh TNFAIP8L3 (11732012_x_at) / RFU MBOAT4 (11741988_at) / Fold change /veh MBOAT4 (11741988_at) / RFU 11764193_at / Fold change /veh 11764193_at / RFU TMEM53 (11763286_at) / Fold change /veh TMEM53 (11763286_at) / RFU MAGEB2 (11727129_at) / Fold change /veh MAGEB2 (11727129_at) / RFU TMEM200A (11744735_a_at) / Fold change /veh TMEM200A (11744735_a_at) / RFU CCDC152 (11751479_a_at) / Fold change /veh CCDC152 (11751479_a_at) / RFU FAM211A (11726209_a_at) / Fold change /veh FAM211A (11726209_a_at) / RFU RGS16 (11746705_a_at) / Fold change /veh RGS16 (11746705_a_at) / RFU VCAN (11755009_s_at) / Fold change /veh VCAN (11755009_s_at) / RFU RHOB (11743442_s_at) / Fold change /veh RHOB (11743442_s_at) / RFU RGS16 (11720943_a_at) / Fold change /veh RGS16 (11720943_a_at) / RFU RGS16 (11720944_at) / Fold change /veh RGS16 (11720944_at) / RFU, VPS4B / Fold change vs veh, VPS4B / RFU, CREB1 / Fold change vs veh, CREB1 / RFU, DNAJC13 / Fold change vs veh, DNAJC13 / RFU, GNAQ / Fold change vs veh, GNAQ / RFU, CDK5R1 / Fold change vs veh, CDK5R1 / RFU, ZRANB3 / Fold change vs veh, ZRANB3 / RFU, CUL4A / Fold change vs veh, CUL4A / RFU, CCNY / Fold change vs veh, CCNY / RFU, UFL1 / Fold change vs veh, UFL1 / RFU, COG3 / Fold change vs veh, COG3 / RFU, DIAPH2 / Fold change vs veh, DIAPH2 / RFU, SKA2 / Fold change vs veh, SKA2 / RFU, AFF3 / Fold change vs veh, AFF3 / RFU, LMF1 / Fold change vs veh, LMF1 / RFU, IPO11 / Fold change vs veh, IPO11 / RFU, DFFB / Fold change vs veh, DFFB / RFU, FOXP1 / Fold change vs veh, FOXP1 / RFU, CARD8 / Fold change vs veh, CARD8 / RFU, STRN3 / Fold change vs veh, STRN3 / RFU, ADK / Fold change vs veh, ADK / RFU, RASSF2 / Fold change vs veh, RASSF2 / RFU, WIPF1 / Fold change vs veh, WIPF1 / RFU, LARP1B / Fold change vs veh, LARP1B / RFU, RASA1 / Fold change vs veh, RASA1 / RFU, RB1 / Fold change vs veh, RB1 / RFU, PPFIA1 / Fold change vs veh, PPFIA1 / RFU, MAT2A / Fold change vs veh, MAT2A / RFU, CCT5 / Fold change vs veh, CCT5 / RFU, WDR92 / Fold change vs veh, WDR92 / RFU, CUX1 / Fold change vs veh, CUX1 / RFU, TTC7A / Fold change vs veh, TTC7A / RFU, TMEM135 / Fold change vs veh, TMEM135 / RFU, DEPTOR / Fold change vs veh, DEPTOR / RFU, CPM / Fold change vs veh, CPM / RFU, DNAJB6 / Fold change vs veh, DNAJB6 / RFU, CACNA2D3 / Fold change vs veh, CACNA2D3 / RFU, DTX4 / Fold change vs veh, DTX4 / RFU, TFCP2 / Fold change vs veh, TFCP2 / RFU, GMCL1 /// GMCL1P1 / Fold change vs veh, GMCL1 /// GMCL1P1 / RFU, AEBP2 / Fold change vs veh, AEBP2 / RFU, SNHG1 /// SNORD22 /// SNORD25 /// SNORD26 /// SNORD27 /// SNORD28 /// SNORD29 /// SNORD31 / Fold change vs veh, SNHG1 /// SNORD22 /// SNORD25 /// SNORD26 /// SNORD27 /// SNORD28 /// SNORD29 /// SNORD31 / Fold change (Aza/veh), C12orf56 (ProbeSet 11735607_a_at) / Fold change (ACY-1035/veh), C12orf56 (ProbeSet 11735607_a_at) / Fold change (Aza/veh), FGFR1OP (ProbeSet 11751329_s_at) / Fold change (ACY-1035/veh), FGFR1OP (ProbeSet 11751329_s_at) / Fold change (Aza/veh), VPS36 (ProbeSet 11739960_a_at) / Fold change (ACY-1035/veh), VPS36 (ProbeSet 11739960_a_at) / RFU SYPL1 (11715823_x_at) / Fold change /veh SYPL1 (11715823_x_at) / RFU IGFBP7 (11715501_s_at) / Fold change /veh IGFBP7 (11715501_s_at) / RFU REEP3 (11722064_at) / Fold change /veh REEP3 (11722064_at) / RFU IGLL1 (11728026_x_at) / Fold change /veh IGLL1 (11728026_x_at): dose or concentration left out as unconfirmed
Settings: ProbeSet 11749645_x_at; LIST B

## Nc1ccc(-c2cccs2)cc1NC(=O)c1ccc2c(c1)cc(C1CC1)n2CCN1CCOCC1 [ACY-1035]
  Fold change vs veh, ZNF268: 0.87
